Our source for the inhibition values is patent US20260174786A1, “A NITROGEN-CONTAINING SPIROCYCLIC COMPOUND, PHARMACEUTICAL COMPOSITION AND USE THEREOF” (Prime Gene Therapeutics Co., Ltd., priority 2022, published 2026).

Broadly, the inhibition is the share of the control response that was lost under treatment. Read a low inhibition as a weak effect.

This experiment deals with T1, hTRPV3 (Homo sapiens, UniProt Q8NET8).
T1 construct: expressed in transfected cells; host or cells: HEK-293
T1 sequence (Q8NET8 1-790): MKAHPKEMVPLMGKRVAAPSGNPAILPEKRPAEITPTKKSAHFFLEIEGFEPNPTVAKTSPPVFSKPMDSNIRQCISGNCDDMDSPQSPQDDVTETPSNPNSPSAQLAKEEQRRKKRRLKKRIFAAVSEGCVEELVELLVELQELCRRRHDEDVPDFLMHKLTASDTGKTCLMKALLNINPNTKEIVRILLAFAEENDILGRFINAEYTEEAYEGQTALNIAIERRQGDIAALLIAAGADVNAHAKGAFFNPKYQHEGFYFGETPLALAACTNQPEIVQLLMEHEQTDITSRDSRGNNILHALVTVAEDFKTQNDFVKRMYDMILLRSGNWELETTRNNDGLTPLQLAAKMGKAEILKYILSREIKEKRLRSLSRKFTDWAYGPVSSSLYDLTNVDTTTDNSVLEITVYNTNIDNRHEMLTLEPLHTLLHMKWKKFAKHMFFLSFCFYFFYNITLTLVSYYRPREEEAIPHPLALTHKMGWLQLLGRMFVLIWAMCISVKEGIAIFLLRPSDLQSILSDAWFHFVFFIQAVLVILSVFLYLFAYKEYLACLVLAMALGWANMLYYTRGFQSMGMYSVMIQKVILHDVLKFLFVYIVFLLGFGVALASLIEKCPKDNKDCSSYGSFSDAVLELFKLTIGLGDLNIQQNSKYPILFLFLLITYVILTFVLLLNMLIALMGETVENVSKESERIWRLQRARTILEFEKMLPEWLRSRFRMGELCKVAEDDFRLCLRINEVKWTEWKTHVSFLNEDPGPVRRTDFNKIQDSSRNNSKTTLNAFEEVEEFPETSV
Kind of experiment: Whole cell patch clamp inhibition rate test on HEK-293 cells instantaneously expressing TRPV3. In kind it is cell-based. The note with it: HEK293; hTRPV3, single concentration 0.3 μM. Here is the method: In this study, HEK-293 cells instantaneously expressing TRPV3 were used for experimental detection.
The operation steps are as follows:
The cells were cultured in DMEM medium containing 10% fetal bovine serum at a temperature of 37° C. and a carbon dioxide concentration of 5%.
Day 1: Cells were inoculated into a 6-well plate with 5×10^5 cells per well.
Day 2: Transfection was performed using Lipofectamine 3000 transfection reagent, with a plasmid to transfection reagent ratio of 1 μg: 2 μL. The total amount of plasmid used per well was 3 μg. Specifically, two sterile centrifuge tubes were taken and 100 μL Opti-MEM was added to each tube. 6 μL Lipofectamine 3000 was added to one tube and mixed well; and 3 μg plasmid was added to another tube and mixed well, and then 6 μL P3000 was added and mixed well; Subsequently, the diluted plasmid DNA was added to diluted Lipofectamine 3000 and incubated at room temperature for 10-15 min. DNA liposome complex was dropped into the cells, shaked gently and mixed well, and then cultured in an incubator. The liquid was changed after 4 to 6 h.
Day 3: The cells were digested and seeded into 24 well plates with pre-placed cover slides, with 8×10^3 cells per well.
Day 4: Patch clamp testing was performed.
The voltage stimulation protocol for recording TRPV3 current using whole cell patch clamp is as follows: after forming a whole cell seal, a cell membrane voltage clamp was set at −80 mV. Firstly, a membrane potential was recorded at 0 mV, and then a voltage was command to start from −100 mV, to depolarize in the form of Ramp to 100 mV within 100 ms, and finally restore to 0 mV. Data collection was repeated every 5 seconds to observe the inhibitory effect of pharmaceutical on peak current. Experimental data was collected by EPC 10 amplifier (HEKA) and stored in PatchMaster (HEKA) software.
A microelectrode puller was used to pull the capillary glass tube into a recording electrode. The electrode filled with intracellular fluid was inserted into a microelectrode holder, and a microelectrode manipulator was operated under an inverted microscope to immerse the electrode in extracellular fluid and an electrode resistance (Rpip) was recorded. The electrode was brought into contact with the cell surface and a negative pressure suction was applied to form a high resistance seal (GΩ). At this point, a fast capacitance compensation was performed, and negative pressure was continued to apply in order to break the cell membrane, so that a whole cell recording mode was formed. Then, a slow capacitance compensation was performed and experimental parameters such as film capacitance (Cm) and series resistance (Rs) were recorded. No leakage compensation was provided.
When the TRPV3 current recorded by the whole cell had stabilized, administration was started. Each pharmaceutical concentration acted for 5 minutes (or until the current stabilized) before detecting the next concentration. A plurality of concentrations was tested for each test compound. A cover glass covered with cells was placed in a recording bath under an inverted microscope. A blank control extracellular solution and a working fluid for the compound to be tested sequentially flowed through the recording bath from low concentration to high concentration using gravity perfusion to act on the cells. Liquid exchange was performed using a peristaltic pump during recording. The current detected by each cell in the extracellular fluid without the compound served as its own control group. Each concentration was independently tested twice using at least two cells. All electrophysiological tests were conducted at room temperature.
For orientation: In patch-clamp work, channel activity is measured electrically.
Take `COCc1cccc(C(=O)N2CCC3(CC(O)c4cc(-c5ccccc5C5CC5)ccc43)C2)n1` (stereo not drawn) [Example 47, (5-(2-cyclopropylphenyl)-3-hydroxy-2,3-dihydrospiro[indene-1,3′-pyrrolidine]-1′-yl)(6-(methoxymethyl)pyridin-2-yl) ketone]: the inhibition at 0.3 µM is below 25%.

Turning to `CNc1cncc(C(=O)N2CCC3(CC(O)c4cc(-c5ccccc5C5CC5)ccc43)C2)n1` (stereo not drawn) [Example 48, (5-(2-cyclopropylphenyl)-3-hydroxy-2,3-dihydrospiro[indene-1,3′-pyrrolidine]-1′-yl)(6-(methylamino)pyrazin-2-yl) ketone], the inhibition at 0.3 µM lay in the range of 70 to 100%.

The compound `O=C(c1ccc(C(F)(F)F)cn1)N1CCC2(CC(O)c3cc(-c4ccccc4C4CC4)ccc32)C1` (stereo not drawn) [Example 50, (5-(2-cyclopropylphenyl)-3-hydroxy-2,3-dihydrospiro[indene-1,3′-pyrrolidine]-1′-yl)(5-(trifluoromethyl)pyridin-2-yl) ketone] registered an inhibition at 0.3 µM of 70 to 100%.

For `O=C(c1cccc(Cl)n1)N1CCC2(CC(O)c3cc(-c4ccccc4C4CC4)ccc32)C1` (stereo not drawn) [Example 51, (6-chloropyridin-2-yl)(5-(2-cyclopropylphenyl)-3-hydroxy-2,3-dihydrospiro[indene-1,3′-pyrrolidine]-1′-yl)ketone], the inhibition at 0.3 µM fell in the range of 70 to 100%.

Consider `O=C(c1ncccc1Cl)N1CCC2(CC(O)c3cc(-c4ccccc4C4CC4)ccc32)C1` (stereo not drawn) [Example 52, (3-chloropyridin-2-yl)(5-(2-cyclopropylphenyl)-3-hydroxy-2,3-dihydrospiro[indene-1,3′-pyrrolidine]-1′-yl)ketone], for which the inhibition at 0.3 µM fell in the range of 50 to 70%.

`Cc1cccc(C(=O)N2CCC3(CC(O)c4cc(-c5ccccc5C5CC5)ccc43)C2)n1` (stereo not drawn) [Example 53, (5-(2-cyclopropylphenyl)-3-hydroxy-2,3-dihydrospiro[indene-1,3′-pyrrolidine]-1′-yl)(6-methylpyridin-2-yl)ketone] displayed an inhibition at 0.3 µM of 70 to 100%.

In turn, `O=C(c1ccc(F)c(Cl)n1)N1CCC2(CC(O)c3cc(-c4ccccc4C4CC4)ccc32)C1` (stereo not drawn) [Example 54, (6-chloro-5-fluoropyridin-2-yl)(5-(2-cyclopropylphenyl)-3-hydroxy-2,3-dihydrospiro[indene-1,3′-pyrrolidine]-1′-yl)ketone] gave an inhibition at 0.3 µM of 70 to 100%.

`COc1ncnc(OC)c1C(=O)N1CCC2(CC(O)c3cc(-c4ccccc4C4CC4)ccc32)C1` (stereo not drawn) [Example 56, (5-(2-cyclopropylphenyl)-3-hydroxy-2,3-dihydrospiro[indene-1,3′-pyrrolidine]-1′-yl)(4,6-dimethoxypyrimidin-5-yl)ketone] yielded an inhibition at 0.3 µM below 25%.

As to `CC(C)c1ccccc1-c1ccc2c(c1)C(O)CC21CCN(C(=O)c2ccn3nccc3n2)C1` (stereo not drawn) [Example 57, (3-hydroxy-5-(2-isopropylphenyl)-2,3-dihydrospiro[indene-1,3′-pyrrolidine]-1′-yl)(pyrazolo[1,5-a]pyrimidin-5-yl) ketone], the inhibition at 0.3 µM fell in the range of 50 to 70%.

In turn, `CC(C)c1ccccc1-c1ccc2c(c1)C(O)CC21CCN(C(=O)c2ccc(Cl)cn2)C1` (stereo not drawn) [Example 58, (5-chloropyridin-2-yl)(3-hydroxy-5-(2-isopropylphenyl)-2,3-dihydrospiro[indene-1,3′-pyrrolidine]-1′-yl)ketone] had an inhibition at 0.3 µM of 70 to 100%.

The compound `CC(C)c1ccccc1-c1ccc2c(c1)C(O)CC21CCN(C(=O)c2ccccn2)C1` (stereo not drawn) [Example 60, (3-hydroxy-5-(2-isopropylphenyl)-2,3-dihydrospiro[indene-1,3′-pyrrolidine]-1′-yl)(pyridin-2-yl)ketone] had an inhibition at 0.3 µM of 70 to 100%.

With `CC(C)c1ccccc1-c1ccc2c(c1)C(O)CC21CCN(C(=O)c2ccc(F)cc2)C1` (stereo not drawn) [Example 61, (4-fluorophenyl)(3-hydroxy-5-(2-isopropylphenyl)-2,3-dihydrospiro[indene-1,3′-pyrrolidine]-1′-yl)ketone], the inhibition at 0.3 µM lay in the range of 70 to 100%.

For the compound `COc1cnc(C(=O)N2CCC3(CC(O)c4cc(-c5ccccc5C(C)C)ccc43)C2)cn1` (stereo not drawn) [Example 63, (3-hydroxy-5-(2-isopropylphenyl)-2,3-dihydrospiro[indene-1,3′-pyrrolidine]-1′-yl)(5-methoxypyrazin-2-yl) ketone], the inhibition at 0.3 µM was in the range of 70 to 100%.

In turn, `Cc1cnc(C(=O)N2CCC3(CC(O)c4cc(-c5ccccc5C(C)C)ccc43)C2)cn1` (stereo not drawn) [Example 65, (3-hydroxy-5-(2-isopropylphenyl)-2,3-dihydrospiro[indene-1,3′-pyrrolidine]-1′-yl)(5-methylpyrazin-2-yl)ketone] showed an inhibition at 0.3 µM of 70 to 100%.

For the compound `CC(C)c1ccccc1-c1ccc2c(c1)C(O)CC21CCN(C(=O)c2ncccn2)C1` (stereo not drawn) [Example 66, (3-hydroxy-5-(2-isopropylphenyl)-2,3-dihydrospiro[indene-1,3′-pyrrolidine]-1′-yl)(pyrimidin-2-yl)ketone], the inhibition at 0.3 µM lay in the range of 25 to 50%.

On to `CC(C)c1ccccc1-c1ccc2c(c1)C(O)CC21CCN(C(=O)c2ccncn2)C1` (stereo not drawn) [Example 67, (3-hydroxy-5-(2-isopropylphenyl)-2,3-dihydrospiro[indene-1,3′-pyrrolidine]-1′-yl)(pyrimidin-4-yl)ketone], for which the inhibition at 0.3 µM fell in the range of 50 to 70%.

`COCc1cnc(C(=O)N2CCC3(CC(O)c4cc(-c5ccccc5C(C)C)ccc43)C2)cn1` (stereo not drawn) [Example 69, (3-hydroxy-5-(2-isopropylphenyl)-2,3-dihydrospiro[indene-1,3′-pyrrolidine]-1′-yl)(5-(methoxymethyl)pyrazin-2-yl)ketone] had an inhibition at 0.3 µM below 25%.

Take `CC(C)c1ccccc1-c1ccc2c(c1)C(O)CC21CCN(C(=O)c2cocn2)C1` (stereo not drawn) [Example 70, (3-hydroxy-5-(2-isopropylphenyl)-2,3-dihydrospiro[indene-1,3′-pyrrolidine]-1′-yl)(oxazol-4-yl)ketone]: the inhibition at 0.3 µM lay in the range of 50 to 70%.

Consider `CC(C)c1ccccc1-c1ccc2c(c1)C(O)CC21CCN(C(=O)c2cc[nH]n2)C1` (stereo not drawn) [Example 71, (3-hydroxy-5-(2-isopropylphenyl)-2,3-dihydrospiro[indene-1,3′-pyrrolidine]-1′-yl)(1H-pyrazol-3-yl)ketone], for which the inhibition at 0.3 µM lay within 50 to 70%.

Consider `CC(C)c1ccccc1-c1ccc2c(c1)C(O)CC21CCN(C(=O)C2CCN(C)CC2)C1` (stereo not drawn) [Example 74, (3-hydroxy-5-(2-isopropylphenyl)-2,3-dihydrospiro[indene-1,3′-pyrrolidine]-1′-yl)(1-methylpiperidin-4-yl) ketone], for which the inhibition at 0.3 µM is below 25%.

`CC(C)c1ccccc1-c1ccc2c(c1)C(O)CC21CCN(C(=O)c2ccc3cn[nH]c3n2)C1` (stereo not drawn) [Example 75, (3-hydroxy-5-(2-isopropylphenyl)-2,3-dihydrospiro[indene-1,3′-pyrrolidine]-1′-yl)(1Hpyrazolo[3,4-b]pyridin-6-yl) ketone] had an inhibition at 0.3 µM of 25 to 50%.
